Data published in patent publication EP0482717A1, “Use of a benzo[b]thiophene-2-carboximidamide derivative against heart failure” (Akzo Nobel N.V., priority 1990, dated 1992).
Marks after values point to notes of the source that are not given here.

Legend:
Type in all cases: in vivo
[1] = test system: anaesthetized cat; experiment: Left ventricular contractility (LV dP/dt) after oral administration (by gavage) to anaesthetized cats; settings: for potency at increasing left ventricular contractility (LV dP/dt): administered orally (by gavage), compounds I and II compared, species not given
Description: However, it also appeared that this improvement with regard to compound II could be fully attributed to its reduced bioavailability. […] Poor activity was also observed after oral administration (by gavage) of the compound to anaesthetized cats. Substitution with C1 at the 4- position in the benzothiophene nucleus, thus reduces oral activity.
(§1) The pharmacological results after oral administration of compounds I (this invention) vs. compounds II and III (EP 158,380), are depicted in table I (cat) and table II (dog).

[2] = test system: conscious dog; experiment: Left ventricular contractility (LV dP/dt), emesis and restlessness after oral administration to conscious dogs
Description: (§2) Related compounds with positive inotropic activity have been disclosed in European patent 158,380.
as §1

[3] = Plasma drug levels in multiple dose studies in rats; settings: compared with an equivalent dose of compound II
[4] = test system: volunteers; experiment: Clinical Phase I studies, oral administration to volunteers
Description: as §2

[5] = oral administration, conscious dog, dose 25 mg/kg

SMILES | potency at increasing left ventricular contractility (LV dP/dt) [1] | emetic effect compared with compound II ([2]; oral administration to conscious dogs) | emesis [2, 5] | increase in LV dP/dt (%) [2, 5] | restlessness [2, 5] | increases in LV dP/dt ([2]; oral dose 25 mg/kg) | vomiting ([2]; oral dose 25 mg/kg) | plasma drug levels [3] | activity after oral administration (by gavage) ([1]; anaesthetized cats) | increases of left ventricular contractility (LV dP/dt) ([2]; conscious dogs, oral administration, doses up to and including 50 mg/kg) | emesis and vomiting ([2]; dose not stated) | restlessness ([2]; dose not stated) | doses at which the compound consistently produces vomiting and restlessness ([2]; administered orally to conscious restrained dogs) [mg/kg] | nausea and vomiting [4]
COc1cc2sc(C(=N)NO)cc2c(F)c1OC [Compound I, 4-fluoro-N-hydroxy-5,6-dimethoxybenzo[b]thiophene-2-carboximidamide] | approximately equipotent | less emetic than compound II | 0 | 45% | 0 | marked increases | no significant vomiting | higher | – | – | – | – | – | –
COc1cc2sc(C(N)=NO)cc2c(Cl)c1OC [III] | – | – | 0 | 10% | – | – | – | – | Poor activity | Only modest increases | did not cause emesis and vomiting | restlessness was still observed | – | –
COc1cc2cc(C(N)=NO)sc2cc1OC [II] | approximately equipotent | – | – | 50-100* % | – | – | – | – | – | – | – | – | > 10 | nausea and vomiting were also observed
